Experimental data from the supplement of paper PMC13207355.
Counter-ions that a name gives are not always drawn.

How the values were obtained:
Conditions in all cases: exposure time: 72 h
E21 [1] = patient-derived glioblastoma stem cells of mesenchymal subtype; assay: phenotypic distance (Euclidean, principal components) from DMSO controls (arbitrary units); higher = stronger morphological change
E31 [2] = patient-derived glioblastoma stem cells of proneural subtype; assay: as above
E57 [3] = patient-derived glioblastoma stem cells of mesenchymal subtype; assay: as above
E28 [4] = patient-derived glioblastoma stem cells of classical subtype; assay: as above
E13 [5] = patient-derived glioblastoma stem cells of classical subtype; assay: as above
FT3469 [6] = normal neural stem cell line; assay: as above
E34 [7] = patient-derived glioblastoma stem cells of proneural subtype; assay: as above
E21 [8] = assay: surviving fraction (nuclei count normalised to DMSO); higher = more cells surviving (less toxic)
E31 [9] = assay: as above
E57 [10] = assay: as above
E28 [11] = assay: as above
E13 [12] = assay: as above
FT3469 [13] = assay: as above
E34 [14] = assay: as above
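Throughout, for phenotypic distance (Euclidean, principal components) from DMSO controls: cell Painting imaging in 384-well plates, CellProfiler features reduced to at least 20 principal components, Euclidean distance versus same-plate DMSO vehicle wells (0.1% v/v), median over six images per well.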
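Throughout, for surviving fraction (nuclei count normalised to DMSO): nuclei counted by high-content imaging of Hoechst-stained cells in laminin-coated 384-well plates, relative to 0.1% DMSO vehicle wells, with staurosporine as cell-death control.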

CC(=O)O[C@H]1C[C@H](O[C@H]2[C@@H](O)C[C@H](O[C@H]3[C@@H](O)C[C@H](O[C@H]4CC[C@@]5(C)[C@H](CC[C@@H]6[C@@H]5C[C@@H](O)[C@]5(C)[C@@H](C7=CC(=O)OC7)CC[C@]65O)C4)O[C@@H]3C)O[C@@H]2C)O[C@H](C)[C@H]1O[C@@H]1O[C@H](CO)[C@@H](O)[C@H](O)[C@H]1O [Lanatoside C]
Conditions | phenotypic distance | surviving fraction
E13 [5], 4.1 nM | 3.23 | –
E13 [5], 12.3 nM | 4.4 | –
E13 [5], 37 nM | 4.8 | –
E13 [5], 111.1 nM | 5.94 | –
E13 [5], 333.3 nM | 6.29 | –
E13 [5], 1000 nM | 6.53 | –
E13 [5], 3000 nM | 6.35 | –
E13 [12], 4.1 nM | – | 0.646
E13 [12], 12.3 nM | – | 0.373
E13 [12], 37 nM | – | 0.344
E13 [12], 111.1 nM | – | 0.349
E13 [12], 333.3 nM | – | 0.268
E13 [12], 1000 nM | – | 0.273
E13 [12], 3000 nM | – | 0.245
E21 [1], 4.1 nM | 2.87 | –
E21 [1], 12.3 nM | 3.93 | –
E21 [1], 37 nM | 4.41 | –
E21 [1], 111.1 nM | 6.06 | –
E21 [1], 333.3 nM | 7.08 | –
E21 [1], 1000 nM | 6.66 | –
E21 [1], 3000 nM | 6.83 | –
E21 [8], 4.1 nM | – | 0.829
E21 [8], 12.3 nM | – | 0.52
E21 [8], 37 nM | – | 0.513
E21 [8], 111.1 nM | – | 0.347
E21 [8], 333.3 nM | – | 0.287
E21 [8], 1000 nM | – | 0.214
E21 [8], 3000 nM | – | 0.241
E28 [4], 4.1 nM | 1.18 | –
E28 [4], 12.3 nM | 1.82 | –
E28 [4], 37 nM | 2.35 | –
E28 [4], 111.1 nM | 3.35 | –
E28 [4], 333.3 nM | 3.21 | –
E28 [4], 1000 nM | 3.17 | –
E28 [4], 3000 nM | 3.73 | –
E28 [11], 4.1 nM | – | 0.864
E28 [11], 12.3 nM | – | 0.807
E28 [11], 37 nM | – | 0.625
E28 [11], 111.1 nM | – | 0.57
E28 [11], 333.3 nM | – | 0.505
E28 [11], 1000 nM | – | 0.394
E28 [11], 3000 nM | – | 0.449
E31 [2], 4.1 nM | 2.01 | –
E31 [2], 12.3 nM | 3.33 | –
E31 [2], 37 nM | 4.72 | –
E31 [2], 111.1 nM | 5.61 | –
E31 [2], 333.3 nM | 4.79 | –
E31 [2], 1000 nM | 4.62 | –
E31 [2], 3000 nM | 5.53 | –
E31 [9], 4.1 nM | – | 1.26
E31 [9], 12.3 nM | – | 0.646
E31 [9], 37 nM | – | 0.564
E31 [9], 111.1 nM | – | 0.398
E31 [9], 333.3 nM | – | 0.413
E31 [9], 1000 nM | – | 0.35
E31 [9], 3000 nM | – | 0.326
E34 [7], 4.1 nM | 1.29 | –
E34 [7], 12.3 nM | 2.98 | –
E34 [7], 37 nM | 3.49 | –
E34 [7], 111.1 nM | 4.28 | –
E34 [7], 333.3 nM | 3.87 | –
E34 [7], 1000 nM | 3.82 | –
E34 [7], 3000 nM | 5.11 | –
E34 [14], 4.1 nM | – | 0.887
E34 [14], 12.3 nM | – | 0.769
E34 [14], 37 nM | – | 0.597
E34 [14], 111.1 nM | – | 0.56
E34 [14], 333.3 nM | – | 0.543
E34 [14], 1000 nM | – | 0.397
E34 [14], 3000 nM | – | 0.276
E57 [3], 4.1 nM | 2.85 | –
E57 [3], 12.3 nM | 4.99 | –
E57 [3], 37 nM | 6.18 | –
E57 [3], 111.1 nM | 7.2 | –
E57 [3], 333.3 nM | 6.8 | –
E57 [3], 1000 nM | 6.87 | –
E57 [3], 3000 nM | 7.11 | –
E57 [10], 4.1 nM | – | 1.03
E57 [10], 12.3 nM | – | 0.615
E57 [10], 37 nM | – | 0.371
E57 [10], 111.1 nM | – | 0.238
E57 [10], 333.3 nM | – | 0.217
E57 [10], 1000 nM | – | 0.177
E57 [10], 3000 nM | – | 0.152
FT3469 [6], 4.1 nM | 3.36 | –
FT3469 [6], 12.3 nM | 3.52 | –
FT3469 [6], 37 nM | 3.89 | –
FT3469 [6], 111.1 nM | 3.72 | –
FT3469 [6], 333.3 nM | 3.47 | –
FT3469 [6], 1000 nM | 3.7 | –
FT3469 [6], 3000 nM | 3.74 | –
FT3469 [13], 4.1 nM | – | 0.642
FT3469 [13], 12.3 nM | – | 0.545
FT3469 [13], 37 nM | – | 0.622
FT3469 [13], 111.1 nM | – | 0.554
FT3469 [13], 333.3 nM | – | 0.66
FT3469 [13], 1000 nM | – | 0.627
FT3469 [13], 3000 nM | – | 0.592

C[C@@H]1CN([C@H]2CC[C@](C#N)(c3ccc(F)cc3)CC2)CC[C@]1(C(=O)O)c1ccccc1 [Levocabastine hydrochloride]
Conditions | phenotypic distance | surviving fraction
E13 [5], 4.1 nM | 0.774 | –
E13 [5], 12.3 nM | 0.599 | –
E13 [5], 37 nM | 0.564 | –
E13 [5], 111.1 nM | 0.596 | –
E13 [5], 333.3 nM | 0.491 | –
E13 [5], 1000 nM | 0.354 | –
E13 [5], 3000 nM | 0.712 | –
E13 [12], 4.1 nM | – | 0.997
E13 [12], 12.3 nM | – | 1.04
E13 [12], 37 nM | – | 1.06
E13 [12], 111.1 nM | – | 0.914
E13 [12], 333.3 nM | – | 1.05
E13 [12], 1000 nM | – | 0.985
E13 [12], 3000 nM | – | 0.918
E21 [1], 4.1 nM | 0.745 | –
E21 [1], 12.3 nM | 0.621 | –
E21 [1], 37 nM | 0.743 | –
E21 [1], 111.1 nM | 0.866 | –
E21 [1], 333.3 nM | 0.582 | –
E21 [1], 1000 nM | 0.688 | –
E21 [1], 3000 nM | 3.41 | –
E21 [8], 4.1 nM | – | 0.99
E21 [8], 12.3 nM | – | 1.15
E21 [8], 37 nM | – | 0.977
E21 [8], 111.1 nM | – | 1.12
E21 [8], 333.3 nM | – | 1.11
E21 [8], 1000 nM | – | 1.12
E21 [8], 3000 nM | – | 0.854
E28 [4], 4.1 nM | 0.787 | –
E28 [4], 12.3 nM | 0.763 | –
E28 [4], 37 nM | 0.863 | –
E28 [4], 111.1 nM | 0.374 | –
E28 [4], 333.3 nM | 0.741 | –
E28 [4], 1000 nM | 0.713 | –
E28 [4], 3000 nM | 1.04 | –
E28 [11], 4.1 nM | – | 1.07
E28 [11], 12.3 nM | – | 1.17
E28 [11], 37 nM | – | 1.13
E28 [11], 111.1 nM | – | 1.1
E28 [11], 333.3 nM | – | 1.1
E28 [11], 1000 nM | – | 1.12
E28 [11], 3000 nM | – | 0.949
E31 [2], 4.1 nM | 0.412 | –
E31 [2], 12.3 nM | 0.744 | –
E31 [2], 37 nM | 0.868 | –
E31 [2], 111.1 nM | 0.539 | –
E31 [2], 333.3 nM | 0.794 | –
E31 [2], 1000 nM | 0.681 | –
E31 [2], 3000 nM | 0.779 | –
E31 [9], 4.1 nM | – | 1.11
E31 [9], 12.3 nM | – | 1.06
E31 [9], 37 nM | – | 1.13
E31 [9], 111.1 nM | – | 1.01
E31 [9], 333.3 nM | – | 1.17
E31 [9], 1000 nM | – | 1.06
E31 [9], 3000 nM | – | 1.06
E34 [7], 4.1 nM | 0.554 | –
E34 [7], 12.3 nM | 1.09 | –
E34 [7], 37 nM | 0.93 | –
E34 [7], 111.1 nM | 0.824 | –
E34 [7], 333.3 nM | 0.742 | –
E34 [7], 1000 nM | 0.79 | –
E34 [7], 3000 nM | 0.624 | –
E34 [14], 4.1 nM | – | 1.01
E34 [14], 12.3 nM | – | 0.8
E34 [14], 37 nM | – | 1.25
E34 [14], 111.1 nM | – | 0.952
E34 [14], 333.3 nM | – | 0.972
E34 [14], 1000 nM | – | 0.909
E34 [14], 3000 nM | – | 1.22
E57 [3], 4.1 nM | 1.04 | –
E57 [3], 12.3 nM | 0.495 | –
E57 [3], 37 nM | 0.313 | –
E57 [3], 111.1 nM | 0.928 | –
E57 [3], 333.3 nM | 4.21 | –
E57 [3], 1000 nM | 0.708 | –
E57 [3], 3000 nM | 0.745 | –
E57 [10], 4.1 nM | – | 1.09
E57 [10], 12.3 nM | – | 1.02
E57 [10], 37 nM | – | 0.987
E57 [10], 111.1 nM | – | 1.11
E57 [10], 333.3 nM | – | 1.08
E57 [10], 1000 nM | – | 0.975
E57 [10], 3000 nM | – | 0.994
FT3469 [6], 4.1 nM | 0.782 | –
FT3469 [6], 12.3 nM | 0.792 | –
FT3469 [6], 37 nM | 0.998 | –
FT3469 [6], 111.1 nM | 0.719 | –
FT3469 [6], 333.3 nM | 3.75 | –
FT3469 [6], 1000 nM | 0.437 | –
FT3469 [6], 3000 nM | 3.86 | –
FT3469 [13], 4.1 nM | – | 1.08
FT3469 [13], 12.3 nM | – | 1.15
FT3469 [13], 37 nM | – | 1.05
FT3469 [13], 111.1 nM | – | 1.11
FT3469 [13], 333.3 nM | – | 1.04
FT3469 [13], 1000 nM | – | 1.07
FT3469 [13], 3000 nM | – | 0.784
